In ChEMBL document CHEMBL2321873, “1-(4-Phenylpiperazin-1-yl)-2-(1H-pyrazol-1-yl)ethanones as novel CCR1 antagonists” (Bioorg Med Chem Lett, 2013):
Active and inactive are the calls of the source. The calls are words filed in the database; no cut-off is given here.

Assays:
[1] = Oral bioavailability in Sprague-Dawley rat at 5 mg/kg; type: ADME, organism-based; conditions: in vivo
Cytomegalovirus = assay: Antagonist activity at CMV US28 assessed as inhibition of chemotaxis at 10 uM
Salmonella typhimurium = assay: Genotoxicity in Salmonella typhimurium by Ames test in absence of S9 fractions; type: toxicity, organism-based; conditions: salmonella enterica subsp. enterica serovar typhimurium
[2] = target: T1, C-C chemokine receptor type 10 (Homo sapiens) (UniProt P46092); assay: Binding affinity to CCR10 (unknown origin) at 10 uM by radioligand displacement assay
T1 sequence (whole entry): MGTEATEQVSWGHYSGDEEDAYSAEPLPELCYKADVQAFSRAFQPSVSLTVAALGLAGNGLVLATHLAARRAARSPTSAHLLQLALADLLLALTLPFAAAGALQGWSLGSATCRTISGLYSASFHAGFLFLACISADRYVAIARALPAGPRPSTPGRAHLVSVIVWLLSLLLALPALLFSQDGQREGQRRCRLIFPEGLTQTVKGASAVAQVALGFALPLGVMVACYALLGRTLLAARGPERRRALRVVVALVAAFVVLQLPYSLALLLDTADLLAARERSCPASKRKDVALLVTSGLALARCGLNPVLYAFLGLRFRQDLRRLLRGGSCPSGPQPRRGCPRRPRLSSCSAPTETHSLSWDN

[3] = target: T2, C-X-C chemokine receptor type 5 (Homo sapiens) (UniProt P32302); assay: Binding affinity to CXCR5 (unknown origin) at 10 uM by radioligand displacement assay
T2 sequence (whole entry): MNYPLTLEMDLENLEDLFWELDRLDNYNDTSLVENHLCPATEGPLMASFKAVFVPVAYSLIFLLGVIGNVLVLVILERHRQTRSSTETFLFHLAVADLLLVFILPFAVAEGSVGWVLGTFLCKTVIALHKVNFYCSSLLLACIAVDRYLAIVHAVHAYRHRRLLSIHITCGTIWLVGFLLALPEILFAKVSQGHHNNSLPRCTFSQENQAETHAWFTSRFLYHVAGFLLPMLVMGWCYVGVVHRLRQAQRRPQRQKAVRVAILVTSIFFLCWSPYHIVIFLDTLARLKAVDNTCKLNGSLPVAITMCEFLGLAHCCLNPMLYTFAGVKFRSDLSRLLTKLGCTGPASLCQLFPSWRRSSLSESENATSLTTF

[4] = target: T3, G protein-coupled receptor (Human herpesvirus 8) (UniProt Q76SF8); assay: Antagonist activity at HHV8 ORF74 assessed as inhibition of chemotaxis at 10 uM; conditions: Human gammaherpesvirus 8
T3 sequence (whole entry): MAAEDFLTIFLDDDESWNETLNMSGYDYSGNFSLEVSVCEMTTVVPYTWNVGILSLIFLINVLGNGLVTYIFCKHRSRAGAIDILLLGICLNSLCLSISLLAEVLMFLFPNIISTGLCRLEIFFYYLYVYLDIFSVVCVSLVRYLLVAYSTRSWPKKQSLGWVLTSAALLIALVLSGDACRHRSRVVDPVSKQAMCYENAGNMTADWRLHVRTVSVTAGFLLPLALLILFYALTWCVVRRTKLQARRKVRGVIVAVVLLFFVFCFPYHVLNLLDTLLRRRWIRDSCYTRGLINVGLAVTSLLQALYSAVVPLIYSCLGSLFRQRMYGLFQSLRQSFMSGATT

[5] = target: C-X-C chemokine receptor type 6 (Homo sapiens) (UniProt O00574); assay: Antagonist activity at CXCR6 (unknown origin) assessed as inhibition of chemotaxis at 10 uM
[6] = target: T4, C-C chemokine receptor type 9 (Homo sapiens) (UniProt P51686); assay: Antagonist activity at CCR9 (unknown origin) assessed as inhibition of calcium flux at 10 uM; type: functional
T4 sequence (whole entry): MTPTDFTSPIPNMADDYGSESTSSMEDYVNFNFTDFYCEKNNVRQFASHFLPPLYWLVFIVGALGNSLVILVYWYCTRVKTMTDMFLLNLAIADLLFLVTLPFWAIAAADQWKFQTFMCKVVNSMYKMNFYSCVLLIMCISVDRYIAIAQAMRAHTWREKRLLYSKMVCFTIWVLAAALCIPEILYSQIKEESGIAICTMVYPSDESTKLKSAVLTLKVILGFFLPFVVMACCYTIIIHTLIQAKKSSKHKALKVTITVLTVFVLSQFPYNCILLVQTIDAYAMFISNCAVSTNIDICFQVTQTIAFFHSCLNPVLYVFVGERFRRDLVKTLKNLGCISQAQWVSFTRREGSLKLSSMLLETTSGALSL

[7] = target: T5, C-C chemokine receptor type 6 (Homo sapiens) (UniProt P51684); assay: Antagonist activity at CCR6 (unknown origin) assessed as inhibition of calcium flux at 10 uM; type: functional
T5 sequence (whole entry): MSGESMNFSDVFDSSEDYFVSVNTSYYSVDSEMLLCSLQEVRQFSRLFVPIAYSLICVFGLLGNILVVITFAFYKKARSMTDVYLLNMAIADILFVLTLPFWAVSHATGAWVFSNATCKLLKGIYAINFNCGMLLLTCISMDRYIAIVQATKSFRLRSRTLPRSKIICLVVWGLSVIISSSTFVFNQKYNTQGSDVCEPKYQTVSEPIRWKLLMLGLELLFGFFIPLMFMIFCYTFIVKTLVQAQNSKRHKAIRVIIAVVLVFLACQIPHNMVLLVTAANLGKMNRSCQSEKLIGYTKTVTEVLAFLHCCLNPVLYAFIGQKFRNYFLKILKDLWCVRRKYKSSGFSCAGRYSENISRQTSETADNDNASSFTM

[8] = target: Atypical chemokine receptor 3 (Homo sapiens) (UniProt P25106); assay: Binding affinity to CXCR7 (unknown origin) at 10 uM by radioligand displacement assay
[9] = target: C-X-C chemokine receptor type 6 (Homo sapiens) (UniProt O00574); assay: Antagonist activity at CXCR6 (unknown origin) assessed as inhibition of calcium flux at 10 uM; type: functional
[10] = target: T3, G protein-coupled receptor (Human herpesvirus 8); assay: Binding affinity to HHV8 ORF74 at 10 uM by radioligand displacement assay; conditions: Human gammaherpesvirus 8
[11] = target: C-C chemokine receptor type 8 (Homo sapiens) (UniProt P51685); assay: Binding affinity to CCR8 (unknown origin) at 10 uM by radioligand displacement assay
[12] = target: T6, Atypical chemokine receptor 1 (Homo sapiens) (UniProt Q16570); assay: Antagonist activity at Duffy (unknown origin) assessed as inhibition of calcium flux at 10 uM; type: functional
T6 sequence (whole entry): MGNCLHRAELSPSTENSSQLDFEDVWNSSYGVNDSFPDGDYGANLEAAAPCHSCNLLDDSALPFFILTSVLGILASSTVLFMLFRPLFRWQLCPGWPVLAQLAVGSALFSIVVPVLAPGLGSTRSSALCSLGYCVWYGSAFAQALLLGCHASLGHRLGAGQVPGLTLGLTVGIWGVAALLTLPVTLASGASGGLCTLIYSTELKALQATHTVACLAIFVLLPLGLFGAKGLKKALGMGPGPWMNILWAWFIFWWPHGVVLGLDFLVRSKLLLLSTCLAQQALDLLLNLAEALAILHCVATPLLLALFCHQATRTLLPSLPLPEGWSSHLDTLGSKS

[13] = target: C-X-C chemokine receptor type 4 (Homo sapiens) (UniProt P61073); assay: Antagonist activity at CXCR4 (unknown origin) assessed as inhibition of calcium flux at 10 uM; type: functional
Chain of C-X-C chemokine receptor type 4 (Homo sapiens) (P61073 whole entry): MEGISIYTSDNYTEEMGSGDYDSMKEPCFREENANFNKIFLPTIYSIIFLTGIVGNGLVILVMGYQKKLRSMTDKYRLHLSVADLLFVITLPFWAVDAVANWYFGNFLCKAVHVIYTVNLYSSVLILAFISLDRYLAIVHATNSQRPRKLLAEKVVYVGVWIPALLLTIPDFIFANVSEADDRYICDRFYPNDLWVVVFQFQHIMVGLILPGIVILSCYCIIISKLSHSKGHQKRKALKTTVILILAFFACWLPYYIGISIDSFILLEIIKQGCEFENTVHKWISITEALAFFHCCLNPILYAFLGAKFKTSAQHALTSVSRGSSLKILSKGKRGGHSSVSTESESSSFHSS

Chain of C-X-C chemokine receptor type 6 (Homo sapiens) (O00574 whole entry, looked up): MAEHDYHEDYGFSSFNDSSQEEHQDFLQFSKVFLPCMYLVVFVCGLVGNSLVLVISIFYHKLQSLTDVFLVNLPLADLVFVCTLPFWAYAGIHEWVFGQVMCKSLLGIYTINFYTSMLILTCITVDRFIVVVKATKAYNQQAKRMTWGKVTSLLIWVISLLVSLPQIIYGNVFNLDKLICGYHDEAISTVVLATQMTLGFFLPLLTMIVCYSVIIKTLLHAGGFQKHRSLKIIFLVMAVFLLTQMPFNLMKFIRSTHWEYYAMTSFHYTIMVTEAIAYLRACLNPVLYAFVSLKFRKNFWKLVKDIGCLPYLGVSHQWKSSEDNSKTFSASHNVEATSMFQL
Chain of Atypical chemokine receptor 3 (Homo sapiens) (P25106 whole entry): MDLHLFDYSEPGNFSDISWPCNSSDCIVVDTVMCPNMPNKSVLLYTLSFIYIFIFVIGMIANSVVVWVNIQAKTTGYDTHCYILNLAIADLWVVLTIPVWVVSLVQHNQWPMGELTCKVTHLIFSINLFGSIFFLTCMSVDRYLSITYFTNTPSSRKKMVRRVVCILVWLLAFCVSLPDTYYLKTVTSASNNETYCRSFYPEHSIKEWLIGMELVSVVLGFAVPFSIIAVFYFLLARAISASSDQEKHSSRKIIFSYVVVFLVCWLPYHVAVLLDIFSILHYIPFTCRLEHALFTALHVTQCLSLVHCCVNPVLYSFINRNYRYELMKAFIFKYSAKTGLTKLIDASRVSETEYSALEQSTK
Chain of C-C chemokine receptor type 8 (Homo sapiens) (P51685 whole entry): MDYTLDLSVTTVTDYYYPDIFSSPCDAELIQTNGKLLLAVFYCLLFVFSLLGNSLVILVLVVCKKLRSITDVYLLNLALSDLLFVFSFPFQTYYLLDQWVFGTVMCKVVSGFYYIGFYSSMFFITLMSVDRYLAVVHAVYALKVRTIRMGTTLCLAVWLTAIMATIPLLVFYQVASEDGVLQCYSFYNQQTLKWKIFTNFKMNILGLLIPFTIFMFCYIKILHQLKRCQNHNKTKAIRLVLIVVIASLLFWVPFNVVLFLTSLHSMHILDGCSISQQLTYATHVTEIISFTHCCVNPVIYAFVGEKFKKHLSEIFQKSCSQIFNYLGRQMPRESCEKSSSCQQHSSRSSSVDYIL

For `COc1cc(N2CCN(C(=O)Cn3nc(C(F)(F)F)c(Cl)c3C)CC2)ccc1Cl`, the bioavailability [1] was 52%, the inhibition (Cytomegalovirus) was “inactive” and the Activity (Salmonella typhimurium) was “Non-toxic”. The Activity [2] was “inactive”, the Activity [3] was “inactive” and the inhibition [4] was “inactive”. For the same compound, the inhibition [5] was “inactive”, the inhibition [6] was “inactive” and the inhibition [7] was “inactive”. For the same compound, the Activity [8] was “inactive”, the inhibition [9] was “inactive” and the Activity [10] was “inactive”. For the same compound, the Activity [11] was “inactive”, the inhibition [12] was “inactive” and the inhibition [13] was “inactive”.
